Measured values reported in US12606544B2, “JAK1 selective kinase inhibitor” (DIZAL (JIANGSU) PHARMACEUTICAL CO., LTD., priority 2019, dated 2026).
Like-named read-outs stand apart in the source and are kept apart here.

Legend:
TYK2 = target: T1, TYK2 (Homo sapiens, UniProt P29597); assay: Lance Ultra Kinase Assay, recombinant TYK2; type: biochemical; details: 5 mM ATP
T1 construct: purchased Carna Biosciences
Protocol: (§1) Recombinant JAK1, JAK2, JAK3 and TYK2 purchased from Carna Biosciences. The inhibition potency of compounds against JAK1, JAK2, JAK3 and TYK2 was assessed using Lance Ultra Kinase Assay.
(§2) In brief, recombinant kinases were pre-incubated in the presence or absence of compound at room temperature for 15 minutes. The reaction was initiated by the addition of 5 mM ATP and substrate peptide which could be phosphorylated by kinases in the reaction. After 60 minutes incubation, the reaction was stopped by the addition of the detection reagent mix containing EDTA. The fluorescence was measured at 615 nm and 665 nm, respectively with excitation wavelength at 320 nm. The calculated signal ratio of 665 nm/615 nm is proportional to the kinase activity.

phosphorylation of STAT6 = assay: Cellular p-STAT6 assay, IL-13 stimulated THP-1 cells, flow cytometry; type: cell-based; details: IL-13 10 ng/ml, read-out: pSTAT6 IC50
Protocol: To detect phosphorylated STAT6 (pSTAT6), THP-1 cells were harvested by centrifugation at 250 g for 5 min and resuspended in assay medium (RPMI1640+10% FBS) to 2×10^5 cells/well. Test compounds were applied to assay plates in serial dilution from 1 μM to 0.3 nM in DMSO. THP-1 cells were incubated with serial diluted compounds for 60 min at room temperature, followed by stimulation of interleukin (IL-13, 10 ng/ml) for 30 min, fixed in Cytofix buffer (BD Biosciences), and permeabilized in 90% methanol on ice. PE anti-pSTAT6 (BD Biosciences) antibodies were stained for 60 min at room temperature before being analyzed by flow cytometry. In the assay the compounds were thus diluted and dose-response curves for inhibition of the signal determine the IC50 for the compounds.

JAK3 = target: T2, JAK3 (Homo sapiens, UniProt P52333); assay: Lance Ultra Kinase Assay, recombinant JAK3; type: biochemical; details: 5 mM ATP
T2 construct: purchased Carna Biosciences
T2 sequence (P52333 1-1124): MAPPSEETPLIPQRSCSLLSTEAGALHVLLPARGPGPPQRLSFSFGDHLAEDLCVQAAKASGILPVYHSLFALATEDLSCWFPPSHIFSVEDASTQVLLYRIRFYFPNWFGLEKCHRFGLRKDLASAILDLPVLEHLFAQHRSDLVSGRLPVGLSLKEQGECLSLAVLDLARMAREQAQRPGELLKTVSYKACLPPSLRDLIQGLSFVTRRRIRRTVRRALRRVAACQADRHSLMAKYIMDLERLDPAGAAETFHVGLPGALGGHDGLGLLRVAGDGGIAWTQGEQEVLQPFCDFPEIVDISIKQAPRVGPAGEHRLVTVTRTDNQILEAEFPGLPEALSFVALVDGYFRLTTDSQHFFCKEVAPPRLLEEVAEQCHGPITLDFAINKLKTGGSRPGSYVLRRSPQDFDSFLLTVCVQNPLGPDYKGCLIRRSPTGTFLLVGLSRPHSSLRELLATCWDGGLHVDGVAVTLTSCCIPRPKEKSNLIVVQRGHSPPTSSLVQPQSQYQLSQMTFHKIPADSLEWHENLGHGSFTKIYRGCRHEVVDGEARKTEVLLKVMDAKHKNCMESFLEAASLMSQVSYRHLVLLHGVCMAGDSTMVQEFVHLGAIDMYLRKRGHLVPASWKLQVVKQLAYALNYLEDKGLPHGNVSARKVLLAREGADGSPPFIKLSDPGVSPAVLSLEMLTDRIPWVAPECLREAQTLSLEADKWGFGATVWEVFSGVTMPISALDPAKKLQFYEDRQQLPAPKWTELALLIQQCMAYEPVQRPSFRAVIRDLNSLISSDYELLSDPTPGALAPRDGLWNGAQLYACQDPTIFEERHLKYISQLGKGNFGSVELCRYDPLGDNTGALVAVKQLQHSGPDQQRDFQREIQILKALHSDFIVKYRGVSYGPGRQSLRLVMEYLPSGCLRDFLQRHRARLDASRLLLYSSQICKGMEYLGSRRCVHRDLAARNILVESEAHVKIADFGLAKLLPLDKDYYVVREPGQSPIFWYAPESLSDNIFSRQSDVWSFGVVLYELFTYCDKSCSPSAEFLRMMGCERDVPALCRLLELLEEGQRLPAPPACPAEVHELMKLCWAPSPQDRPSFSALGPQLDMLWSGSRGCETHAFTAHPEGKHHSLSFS
Protocol: as §1, §2

JAK2 = target: T3, JAK2 (Homo sapiens, UniProt O60674); assay: Lance Ultra Kinase Assay, recombinant JAK2; type: biochemical; details: 5 mM ATP
T3 construct: purchased Carna Biosciences
Protocol: as §1, §2

JAK1 = target: T4, JAK1 (Homo sapiens, UniProt P23458); assay: Lance Ultra Kinase Assay, recombinant JAK1; type: biochemical; details: 5 mM ATP
T4 construct: purchased Carna Biosciences
Protocol: as §1, §2

[1] = Homo sapiens, THP-1, THP-1 cells

T1 sequence (P29597 whole entry): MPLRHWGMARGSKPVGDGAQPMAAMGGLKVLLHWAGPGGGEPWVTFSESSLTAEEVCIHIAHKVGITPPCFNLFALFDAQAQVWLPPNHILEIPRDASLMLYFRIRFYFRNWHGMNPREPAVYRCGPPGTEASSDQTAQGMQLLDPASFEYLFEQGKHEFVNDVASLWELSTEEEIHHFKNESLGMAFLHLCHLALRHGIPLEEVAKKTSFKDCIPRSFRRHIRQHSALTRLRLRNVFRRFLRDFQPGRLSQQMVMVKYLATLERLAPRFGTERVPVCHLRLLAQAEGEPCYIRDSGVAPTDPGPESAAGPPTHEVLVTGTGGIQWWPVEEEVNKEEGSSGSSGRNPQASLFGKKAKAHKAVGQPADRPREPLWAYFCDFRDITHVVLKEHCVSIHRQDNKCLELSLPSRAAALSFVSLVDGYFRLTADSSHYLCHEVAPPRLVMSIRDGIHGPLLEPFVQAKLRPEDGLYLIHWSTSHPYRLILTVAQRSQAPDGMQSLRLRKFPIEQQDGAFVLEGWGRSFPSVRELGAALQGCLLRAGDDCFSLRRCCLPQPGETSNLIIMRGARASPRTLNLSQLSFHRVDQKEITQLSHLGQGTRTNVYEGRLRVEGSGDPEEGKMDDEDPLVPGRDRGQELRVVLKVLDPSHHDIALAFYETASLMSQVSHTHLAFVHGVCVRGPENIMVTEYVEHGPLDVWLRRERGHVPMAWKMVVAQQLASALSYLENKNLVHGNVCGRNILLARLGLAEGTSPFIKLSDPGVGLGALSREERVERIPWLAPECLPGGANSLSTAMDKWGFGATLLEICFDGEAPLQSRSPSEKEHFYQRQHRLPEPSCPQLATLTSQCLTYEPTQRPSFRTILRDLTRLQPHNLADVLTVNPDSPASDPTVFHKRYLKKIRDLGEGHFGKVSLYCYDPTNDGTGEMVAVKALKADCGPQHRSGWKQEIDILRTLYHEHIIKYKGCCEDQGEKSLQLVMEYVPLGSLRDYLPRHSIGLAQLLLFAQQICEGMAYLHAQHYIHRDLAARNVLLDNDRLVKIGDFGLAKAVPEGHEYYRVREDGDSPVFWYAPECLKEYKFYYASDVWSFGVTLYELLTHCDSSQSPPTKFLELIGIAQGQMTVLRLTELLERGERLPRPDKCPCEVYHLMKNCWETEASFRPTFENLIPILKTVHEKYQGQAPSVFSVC
T3 sequence (O60674 whole entry): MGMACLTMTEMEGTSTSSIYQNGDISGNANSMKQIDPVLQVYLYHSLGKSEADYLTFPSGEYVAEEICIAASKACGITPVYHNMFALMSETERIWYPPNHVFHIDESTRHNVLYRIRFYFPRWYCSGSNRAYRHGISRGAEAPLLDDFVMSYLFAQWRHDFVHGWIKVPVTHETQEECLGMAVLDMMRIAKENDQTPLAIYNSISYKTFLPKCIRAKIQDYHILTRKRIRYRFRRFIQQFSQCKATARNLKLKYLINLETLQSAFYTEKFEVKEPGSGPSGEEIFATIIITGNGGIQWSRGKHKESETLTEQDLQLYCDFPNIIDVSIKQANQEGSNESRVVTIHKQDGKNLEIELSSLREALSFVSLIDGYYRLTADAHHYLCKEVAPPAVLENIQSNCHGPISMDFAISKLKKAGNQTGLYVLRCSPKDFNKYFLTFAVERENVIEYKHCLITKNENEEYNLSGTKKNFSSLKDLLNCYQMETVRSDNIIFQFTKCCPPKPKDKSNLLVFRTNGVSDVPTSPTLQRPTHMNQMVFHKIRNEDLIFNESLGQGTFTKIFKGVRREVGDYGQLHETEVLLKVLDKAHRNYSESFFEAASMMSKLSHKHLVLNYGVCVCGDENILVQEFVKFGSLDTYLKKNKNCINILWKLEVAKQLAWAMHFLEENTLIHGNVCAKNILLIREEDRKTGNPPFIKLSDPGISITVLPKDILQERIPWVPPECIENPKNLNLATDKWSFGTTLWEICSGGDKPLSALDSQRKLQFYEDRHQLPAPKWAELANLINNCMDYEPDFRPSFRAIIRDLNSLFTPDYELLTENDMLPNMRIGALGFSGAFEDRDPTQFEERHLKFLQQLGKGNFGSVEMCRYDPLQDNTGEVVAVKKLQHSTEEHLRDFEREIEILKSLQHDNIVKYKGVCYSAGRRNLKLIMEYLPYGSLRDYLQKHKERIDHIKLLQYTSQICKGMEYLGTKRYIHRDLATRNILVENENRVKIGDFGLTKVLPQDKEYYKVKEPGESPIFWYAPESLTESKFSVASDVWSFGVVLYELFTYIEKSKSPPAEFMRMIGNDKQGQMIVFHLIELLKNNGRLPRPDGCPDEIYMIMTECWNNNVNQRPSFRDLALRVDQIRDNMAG
T4 sequence (P23458 whole entry): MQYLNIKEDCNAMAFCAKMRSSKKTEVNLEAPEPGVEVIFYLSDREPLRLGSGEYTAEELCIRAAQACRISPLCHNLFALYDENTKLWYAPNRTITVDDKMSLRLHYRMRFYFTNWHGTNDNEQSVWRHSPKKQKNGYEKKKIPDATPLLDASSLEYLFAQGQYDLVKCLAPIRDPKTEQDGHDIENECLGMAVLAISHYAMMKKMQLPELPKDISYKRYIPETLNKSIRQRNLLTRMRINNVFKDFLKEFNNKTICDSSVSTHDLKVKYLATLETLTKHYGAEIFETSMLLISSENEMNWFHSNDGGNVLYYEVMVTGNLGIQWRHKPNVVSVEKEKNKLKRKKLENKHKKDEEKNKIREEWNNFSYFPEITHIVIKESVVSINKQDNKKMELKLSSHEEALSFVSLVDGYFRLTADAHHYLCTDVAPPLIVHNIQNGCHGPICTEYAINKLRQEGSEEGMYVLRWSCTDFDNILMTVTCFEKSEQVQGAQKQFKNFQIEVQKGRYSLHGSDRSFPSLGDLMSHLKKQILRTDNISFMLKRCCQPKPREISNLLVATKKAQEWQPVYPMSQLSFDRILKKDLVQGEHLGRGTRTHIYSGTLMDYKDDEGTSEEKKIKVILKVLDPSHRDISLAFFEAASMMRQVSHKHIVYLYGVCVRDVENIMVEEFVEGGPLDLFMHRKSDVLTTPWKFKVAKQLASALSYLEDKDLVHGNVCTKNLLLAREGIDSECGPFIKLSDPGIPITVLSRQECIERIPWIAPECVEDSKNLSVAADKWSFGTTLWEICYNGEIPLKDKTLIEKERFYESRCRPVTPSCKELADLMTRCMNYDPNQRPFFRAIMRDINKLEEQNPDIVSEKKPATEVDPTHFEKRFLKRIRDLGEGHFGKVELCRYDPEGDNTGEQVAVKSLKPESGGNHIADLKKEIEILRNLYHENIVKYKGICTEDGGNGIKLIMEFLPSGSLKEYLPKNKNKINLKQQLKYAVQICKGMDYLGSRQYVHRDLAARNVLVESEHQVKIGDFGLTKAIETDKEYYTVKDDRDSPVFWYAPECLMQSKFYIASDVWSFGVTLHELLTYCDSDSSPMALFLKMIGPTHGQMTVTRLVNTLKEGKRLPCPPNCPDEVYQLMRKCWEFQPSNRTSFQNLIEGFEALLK

## COC[C@H](C(=O)Nc1cccc2c(-c3nc(Nc4ccc(C(C)O)nc4)ncc3F)c[nH]c12)N1CCN(C)CC1 (single isomer, unassigned; isomer 1) [Example 29, 5-fluoro-2-((6-(1-hydroxyethyl)pyridin-3-yl)amino)pyrimidin-4-yl)-1H-indol-7-yl)-3-methoxy-2-(4-methylpiperazin-1-yl)propanamide (isomer 1)]
TYK2
  IC50: 939 nM
Phosphorylation of STAT6; THP-1 cells
  IC50: 9.8 nM
JAK3
  IC50: > 10000 nM
JAK2
  IC50: 74 nM
JAK1
  IC50: 0.31 nM

## COC[C@H](C(=O)Nc1cccc2c(-c3nc(Nc4ccc(C(C)O)nc4)ncc3F)c[nH]c12)N1CCN(C)CC1 (single isomer, unassigned; isomer 2) [Example 9]
TYK2
  IC50: 330 nM
Phosphorylation of STAT6; [1]
  IC50: 6.5 nM
JAK3
  IC50: 9950 nM
JAK2
  IC50: 20 nM
JAK1
  IC50: 0.25 nM

## COC[C@H](C(=O)Nc1cccc2c(-c3nc(Nc4cnc(CO)c(C)c4)ncc3F)c[nH]c12)N1CCN(C)CC1 [Example 3, (R)-N-(3-(5-fluoro-2-((6-(hydroxymethyl)-5-methylpyridin-3-yl)amino)pyrimidin-4-yl)-1H-indol-7-yl)-3-methoxy-2-(4-methylpiperazin-1-yl)propanamide]
TYK2
  IC50: 156 nM
Phosphorylation of STAT6; [1]
  IC50: 4.5 nM
JAK3
  IC50: 7700 nM
JAK2
  IC50: 4 nM
JAK1
  IC50: 0.19 nM

## COC[C@H](C(=O)Nc1cccc2c(-c3nc(Nc4cnn(-c5ccccc5C(=O)OC)c4)ncc3F)c[nH]c12)N1CCN(C)CC1 [Example 6, methyl (R)-2-(4-((5-fluoro-4-(7-(3-methoxy-2-(4-methylpiperazin-1-yl)propanamido)-1H-indol-3-yl)pyrimidin-2-yl)amino)-1H-pyrazol-1-yl)benzoate]
TYK2
  IC50: 4660 nM
Phosphorylation of STAT6; [1]
  IC50: 6 nM
JAK3
  IC50: > 10000 nM
JAK2
  IC50: 452 nM
JAK1
  IC50: 0.42 nM

## COC[C@H](C(=O)Nc1cccc2c(-c3nc(Nc4cnc(C)c(C(=O)OC)c4)ncc3F)c[nH]c12)N1CCN(C)CC1 [Example 7, methyl (R)-5-((5-fluoro-4-(7-(3-methoxy-2-(4-methylpiperazin-1-yl)propanamido)-1H-indol-3-yl)pyrimidin-2-yl)amino)-2-methylnicotinate]
TYK2
  IC50: 634 nM
Phosphorylation of STAT6; [1]
  IC50: 6.2 nM
JAK3
  IC50: > 10000 nM
JAK2
  IC50: 58 nM
JAK1
  IC50: 0.21 nM

## COC[C@H](C(=O)Nc1cccc2c(-c3nc(Nc4ccc(OCC(=O)OC)nc4)ncc3F)c[nH]c12)N1CCN(C)CC1 [Example 14, methyl (R)-2-((5-((5-fluoro-4-(7-(3-methoxy-2-(4-methylpiperazin-1-yl)propanamido)-1H-indol-3-yl)pyrimidin-2-yl)amino)pyridin-2-yl)oxy)acetate]
TYK2
  IC50: 4200 nM
Phosphorylation of STAT6; [1]
  IC50: 7.3 nM
JAK3
  IC50: > 10000 nM
JAK2
  IC50: 336 nM
JAK1
  IC50: 0.2 nM

## COC[C@H](C(=O)Nc1cccc2c(-c3nc(Nc4cnn(C5CCOCC5)c4)ncc3F)c[nH]c12)N1CCN(C)CC1 [Example 18, (R)-N-(3-(5-fluoro-2-((1-(tetrahydro-2H-pyran-4-yl)-1H-pyrazol-4-yl)amino)pyrimidin-4-yl)-1H-indol-7-yl)-3-methoxy-2-(4-methylpiperazin-1-yl)propanamide]
TYK2
  IC50: 1090 nM
Phosphorylation of STAT6; [1]
  IC50: 7.6 nM
JAK3
  IC50: 7730 nM
JAK2
  IC50: 22 nM
JAK1
  IC50: 0.14 nM

## COC[C@H](C(=O)Nc1cccc2c(-c3nc(Nc4cnc5cn[nH]c5c4)ncc3F)c[nH]c12)N1CCN(C)CC1 [Example 19, (R)-N-(3-(2-((1H-pyrazolo[4,3-b]pyridin-6-yl)amino)-5-fluoropyrimidin-4-yl)-1H-indol-7-yl)-3-methoxy-2-(4-methylpiperazin-1-yl)propanamide]
Phosphorylation of STAT6; [1]
  IC50: 7.7 nM
JAK3
  IC50: > 10000 nM
JAK2
  IC50: 215 nM
JAK1
  IC50: 0.27 nM

## CNCCOc1ccc(Nc2ncc(F)c(-c3c[nH]c4c(NC(=O)[C@@H](COC)N5CCN(C)CC5)cccc34)n2)cn1 [Example 20, (R)-N-(3-(5-fluoro-2-((6-(2-(methylamino)ethoxy)pyridin-3-yl)amino)pyrimidin-4-yl)-1H-indol-7-yl)-3-methoxy-2-(4-methylpiperazin-1-yl)propanamide]
TYK2
  IC50: 2400 nM
Phosphorylation of STAT6; [1]
  IC50: 7.9 nM
JAK3
  IC50: > 10000 nM
JAK2
  IC50: 135 nM
JAK1
  IC50: 0.65 nM

## COC[C@H](C(=O)Nc1cccc2c(-c3nc(Nc4cncc(C(=O)OC)c4)ncc3F)c[nH]c12)N1CCN(C)CC1 [Example 21, methyl (R)-5-((5-fluoro-4-(7-(3-methoxy-2-(4-methylpiperazin-1-yl)propanamido)-1H-indol-3-yl)pyrimidin-2-yl)amino)nicotinate]
TYK2
  IC50: 1150 nM
Phosphorylation of STAT6; [1]
  IC50: 8.4 nM
JAK3
  IC50: > 10000 nM
JAK2
  IC50: 125 nM
JAK1
  IC50: 0.2 nM

## COC[C@H](C(=O)Nc1cccc2c(-c3nc(Nc4ccc(-c5ncco5)nc4)ncc3F)c[nH]c12)N1CCN(C)CC1 [Example 22, (R)-N-(3-(5-fluoro-2-((6-(oxazol-2-yl)pyridin-3-yl)amino)pyrimidin-4-yl)-1H-indol-7-yl)-3-methoxy-2-(4-methylpiperazin-1-yl)propanamide]
TYK2
  IC50: 5250 nM
Phosphorylation of STAT6; [1]
  IC50: 8.5 nM
JAK3
  IC50: > 10000 nM
JAK2
  IC50: 467 nM
JAK1
  IC50: 0.24 nM

## COC[C@H](C(=O)Nc1cccc2c(-c3nc(Nc4ccc(-n5ccnc5)nc4)ncc3F)c[nH]c12)N1CCN(C)CC1 [Example 24, (R)-N-(3-(2-((6-(1H-imidazol-1-yl)pyridin-3-yl)amino)-5-fluoropyrimidin-4-yl)-1H-indol-7-yl)-3-methoxy-2-(4-methylpiperazin-1-yl)propanamide]
TYK2
  IC50: 2570 nM
Phosphorylation of STAT6; [1]
  IC50: 8.9 nM
JAK3
  IC50: > 10000 nM
JAK2
  IC50: 403 nM
JAK1
  IC50: 0.82 nM

## COC[C@H](C(=O)Nc1cccc2c(-c3nc(Nc4cncc(CCCO)c4)ncc3F)c[nH]c12)N1CCN(C)CC1 [Example 25, (R)-N-(3-(5-fluoro-2-((5-(3-hydroxypropyl)pyridin-3-yl)amino)pyrimidin-4-yl)-1H-indol-7-yl)-3-methoxy-2-(4-methylpiperazin-1-yl)propanamide]
TYK2
  IC50: 273 nM
Phosphorylation of STAT6; [1]
  IC50: 8.9 nM
JAK3
  IC50: > 10000 nM
JAK2
  IC50: 9 nM
JAK1
  IC50: 0.2 nM

## COC[C@H](C(=O)Nc1cccc2c(-c3nc(Nc4ccc5scnc5c4)ncc3F)c[nH]c12)N1CCN(C)CC1 [Example 26, (R)-N-(3-(2-(benzo[d]thiazol-5-ylamino)-5-fluoropyrimidin-4-yl)-1H-indol-7-yl)-3-methoxy-2-(4-methylpiperazin-1-yl)propanamide]
TYK2
  IC50: 1260 nM
Phosphorylation of STAT6; [1]
  IC50: 9.1 nM
JAK3
  IC50: > 10000 nM
JAK2
  IC50: 100 nM
JAK1
  IC50: 0.07 nM

## COC[C@H](C(=O)Nc1cccc2c(-c3nc(Nc4cncc(O)c4)ncc3F)c[nH]c12)N1CCN(C)CC1 [Example 28, (R)-N-(3-(5-fluoro-2-((5-hydroxypyridin-3-yl)amino)pyrimidin-4-yl)-1H-indol-7-yl)-3-methoxy-2-(4-methylpiperazin-1-yl)propanainide]
TYK2
  IC50: 1180 nM
Phosphorylation of STAT6; [1]
  IC50: 9.6 nM
JAK3
  IC50: > 10000 nM
JAK2
  IC50: 162 nM
JAK1
  IC50: 0.12 nM
